Here are results for ten substances from patent US20030186887A1, “Compounds for detection of infection by chlamydophila abortus” (priority 2000, published 2003).

Several values for one entry are separate records, joined by “and”; a condition that tells them apart may be missing. Identical values can stand only once. Ends that are not written are not given here. * marks the point of attachment. Biotin = O=C1N[C@H]2[C@H](CS[C@H]2CCCCC(=O)*)N1

Test [1] concerns sera from ewes known not to have been infected with C. abortus; SPF lamb antisera. The test can be described thus: ELISA, specificity of peptides with sera from uninfected ewes and SPF lamb antisera (first Table 4). The format is binding, sheep. Details: reactivity with serum (quantity not given): unit not given here. The protocol: (§1) Application of the peptide mixture is performed as follows:
(§2) Two dilutions of standard serum are used.
Specificities of Peptides 2-9,2-10, 1B, 1A/1A and 4B/4B as tested with sera from ewes known not to have been infected with C. abortus, and which had shown positive reactivity in previous tests with various forms of VS 1 and VS2.

Test [2] has as its system antibodies to C. abortus. The test can be described thus: ELISA, serological reactivity of biotinylated peptides against serum dilutions (Tables 1 and 2). The format is binding, sheep. As for the experimental part: as §1, §2
The data illustrate that the length of compound has a major impact on serological reactivity.
Thus, substitutions within the core epitopes described in this invention are possible without too much loss in compound serological reactivity.

The mark [3] stands for this setting: SPF lamb antiserum 2406/2 C.ab, vaccinated with 28/68 (C. abortus).
Where [4] appears, read: SPF lamb antiserum 2407/2 W73, vaccinated with W73 (C. pecorum).
Setting [5] is: SPF lamb antiserum F6/2 Cap.ab, vaccinated with Cap. abortion 15 (C. abortus).
[6] abbreviates: SPF lamb serum 2397/1, pre-vaccination.
The mark [7] stands for this setting: SPF lamb antiserum 2397/2 C.ab, vaccinated with S26/3 (C. abortus).
[8] abbreviates: SPF lamb antiserum 2401/2 C.ab, vaccinated with S26/3 (C. abortus).
Where [9] appears, read: SPF lamb antiserum 2405/2 C.ab, vaccinated with 28/28 (C. abortus).

Turning to “ATALDTSNKFATALDTSNKFA (ATALDTSNKFATALDTSNKFA) [Compound 4B/4B]”, the “reactivity with serum (quantity not given)” value in test [1] (setting [3]) is recorded as “OVER”; in test [1] (setting [4]), 0.8; in test [1] (SPF lamb antiserum F1/2 S45, vaccinated with S45 (C. suis)), 1.2; in test [1] (setting [5]), 0.7; in test [1] (SPF lamb antiserum F8/2 P787, vaccinated with P787 (C. pecorum)) it was 0.4; in test [1] (setting [6]), 0.8. Further, the “reactivity with serum (quantity not given)” value was 0.5 in test [1] (SPF lamb serum F1/1, pre-vaccination); 0.6 in test [1] (serum of animal no. 3178); 1.7 in test [1] (serum of animal no. 3201); “OVER” in test [1] (serum of animal no. A2213); 0.4 in test [1] (serum of animal no. A2261); 0.4 in test [1] (serum of animal no. B2123). The “reactivity with serum (quantity not given)” value is on record as 0.5 in test [1] (serum of animal no. X2895); 0.4 in test [1] (serum of animal no. X2899); 0.7 in test [1] (serum of animal no. Z148); 0.55 in test [1] (serum of animal no. Z2618); 1.0 in test [1] (serum of animal no. Z2646); 0.4 in test [1] (serum of animal no. Z2739).

Consider Biotin-CLIGVKGSSAAD [Compound 2-4], for which the “Net Optical Density” value in test [2] (serum dilution 1/100) is recorded as 2.173; in test [2] (serum dilution 1/200), 1.241; in test [2] (serum dilution 1/400), 0.572; in test [2] (serum dilution 1/800), 0.278; in test [2] (serum dilution 1/1600), 0.133; in test [2] (serum dilution 1/3200), 0.064. In addition, the “Net Optical Density” value in test [2] (serum dilution 1/6400) was determined as 0.040.

In the case of Biotin-KGSSIAAD [Compound 2-1], the “Net Optical Density” value in test [2] (serum dilution 1/100), in test [2] (serum dilution 1/200), in test [2] (serum dilution 1/400), in test [2] (serum dilution 1/800), in test [2] (serum dilution 1/1600) and in test [2] (serum dilution 1/3200) was 0.000 in each case. Also, the “Net Optical Density” value in test [2] (serum dilution 1/6400) worked out at 0.000. Further, the “reactivity (in words)” value in test [2] (studies of Table 1) was “no reactivity whatsoever”.

Take “Biotin-KKKKKGLIGVKGSS L AAD [Compound 2-11]”: in test [2] (2-9 compared with 2-3, 2-11 compared with 2-5), the “effect of substituting isoleucine with leucine within Epitope 2 on reactivity” value is recorded as “small decrease in reactivity”. The “Net Optical Density” value in test [2] (serum dilution 1/100) came to 2.008; in test [2] (serum dilution 1/200), 1.230; in test [2] (serum dilution 1/400), 0.637; in test [2] (serum dilution 1/800) it was 0.299; in test [2] (serum dilution 1/1600), 0.133; in test [2] (serum dilution 1/3200), 0.053. The “Net Optical Density” value in test [2] (serum dilution 1/6400) is 0.026.

On to “Biotin-KKKKKGLIGVKGSSIAAD [Compound 2-5]”, for which the “Net Optical Density” value in test [2] (serum dilution 1/100) is 2.344; in test [2] (serum dilution 1/200), 1/468 and 1.468; in test [2] (serum dilution 1/400), 0.771; in test [2] (serum dilution 1/800) it was 0.358; in test [2] (serum dilution 1/1600) it was 0.156; in test [2] (serum dilution 1/3200), 0.066. Besides, the “Net Optical Density” value in test [2] (serum dilution 1/6400) was 0.036.

Consider Biotin-KKKKKKGSSIAAD [Compound 2-2], for which the “Net Optical Density” value in test [2] (serum dilution 1/100) was 1.515; in test [2] (serum dilution 1/200) it was 0.786; in test [2] (serum dilution 1/400), 0.385; in test [2] (serum dilution 1/800), 0.174; in test [2] (serum dilution 1/1600) it was 0.068; in test [2] (serum dilution 1/3200) it was 0.046. For the same substance, in test [2] (serum dilution 1/6400), the “Net Optical Density” value came to 0.024. Besides, the “reactivity relative to that displayed by Compound 2-3” value in test [2] (studies of Table 1) is listed as “approximately 70%”.

On to “Biotin-KKKKKKKKKKKGSSIAAD [Compound 2-3]”, for which the “Net Optical Density” value in test [2] (serum dilution 1/100) is 2.075; in test [2] (serum dilution 1/200), 1.133; in test [2] (serum dilution 1/400), 0.540; in test [2] (serum dilution 1/800) it was 0.214; in test [2] (serum dilution 1/1600) it was 0.095; in test [2] (serum dilution 1/3200), 0.031. Also, the “Net Optical Density” value in test [2] (serum dilution 1/6400) was 0.007.

On to “GVKGSSIAADQGVKGSSIAADQ (GVKGSSIAADQGVKGSSIAADQ) [Compound 2-10]”, for which the “reactivity with serum (quantity not given)” value in test [1] (setting [7]) is reported as 3.1; in test [1] (setting [8]) it was 1.5; in test [1] (setting [9]), 2.6; in test [1] (setting [3]) it was 1.6; in test [1] (serum of animal no. 1354R) it was 0.9; in test [1] (serum of animal no. 1715T) it was 0.3. In addition, the “reactivity with serum (quantity not given)” value in test [1] (serum of animal no. 2948) is on record as 0.5; in test [1] (serum of animal no. 3174), 1.3; in test [1] (serum of animal no. A2332) it was 1.0; in test [1] (serum of animal no. Z2600), 1.1; in test [1] (serum of animal no. Z2708) it was 0.55.

For “KTITGMTGTAAANYKTITGM (KTITGMTGTAAANYKTITGM) [Compound 1B]”, the “reactivity with serum (quantity not given)” value was “OVER” in test [1] (setting [7]); “OVER” in test [1] (setting [8]); “OVER” in test [1] (setting [9]); “OVER” in test [1] (setting [3]); 1.3 in test [1] (setting [4]); 0.9 in test [1] (setting [5]). Also, the “reactivity with serum (quantity not given)” value was “OVER” in test [1] (setting [6]); 2.3 in test [1] (serum of animal no. 1354R); 0.7 in test [1] (serum of animal no. 3178); “OVER” in test [1] (serum of animal no. A2213); 1.55 in test [1] (serum of animal no. B2123); 0.6 in test [1] (serum of animal no. Z2611). Also, in test [1] (serum of animal no. Z2680), the “reactivity with serum (quantity not given)” value is recorded as 0.5.

“TGTAAANYKTTGTAAANYKT (TGTAAANYKTTGTAAANYKT) [Compound 1A/1A]”: the “specificity compared with 1B (in words)” value in test [1] is listed as “less specific”. In addition, the “reactivity with serum (quantity not given)” value is recorded as “OVER” in test [1] (setting [7]); “OVER” in test [1] (setting [8]); “OVER” in test [1] (setting [9]); “OVER” in test [1] (setting [3]); 1.8 in test [1] (setting [4]); 0.4 in test [1] (SPF lamb antiserum F4/2 84-796, vaccinated with 84-796 (C. pecorum)). Besides, the “reactivity with serum (quantity not given)” value is on record as 0.9 in test [1] (setting [5]); 0.5 in test [1] (SPF lamb antiserum F7/2 P787, vaccinated with P787 (C. pecorum)); “OVER” in test [1] (setting [6]); 2.3 in test [1] (serum of animal no. 1354R); 0.6 in test [1] (serum of animal no. 2948); “OVER” in test [1] (serum of animal no. A2213). Further, the “reactivity with serum (quantity not given)” value in test [1] (serum of animal no. A2261) came out at 0.7; in test [1] (serum of animal no. B2123), 2.0; in test [1] (serum of animal no. Y10-8-14) it was 1.2; in test [1] (serum of animal no. Y10-8-37), 0.8; in test [1] (serum of animal no. Z2611) it was 1.0; in test [1] (serum of animal no. Z2646) it was 0.4. For the same substance, the “reactivity with serum (quantity not given)” value in test [1] (serum of animal no. Z2656) worked out at 0.66.
